Assays:
5-HT1A receptors = biological target: T1, 5-HT1A receptors (Homo sapiens, UniProt P08908); experiment: Radioligand ([3H]8-OH-DPAT) binding to 5-HT1A receptors in post-mortem human hippocampus membranes
T1 construct: hippocampal membranes (400 μl; equivalent 1.25 mg wet weight tissue/tube) were incubated with 50 μl of 0.6 nM; tissue Edinburgh Sudden Death Brain Bank; host or cells: post-mortem human hippocampus membranes
T1 sequence (P08908 1-422): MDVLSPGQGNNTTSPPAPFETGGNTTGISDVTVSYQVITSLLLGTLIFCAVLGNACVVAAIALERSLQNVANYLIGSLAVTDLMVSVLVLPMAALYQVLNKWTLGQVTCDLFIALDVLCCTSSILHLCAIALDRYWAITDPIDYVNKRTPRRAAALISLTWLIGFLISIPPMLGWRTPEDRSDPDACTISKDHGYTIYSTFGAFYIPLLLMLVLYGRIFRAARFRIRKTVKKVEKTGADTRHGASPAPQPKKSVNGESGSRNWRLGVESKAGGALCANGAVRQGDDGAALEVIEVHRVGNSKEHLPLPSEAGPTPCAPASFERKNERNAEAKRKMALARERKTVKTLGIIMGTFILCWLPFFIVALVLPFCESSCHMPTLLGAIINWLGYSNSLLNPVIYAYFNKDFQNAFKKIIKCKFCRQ

5-HT2A receptors = biological target: T2, 5-HT2A receptors (Homo sapiens, UniProt P28223); experiment: Radioligand ([3H]MDL-100,907) binding to 5-HT2A receptors in post-mortem human frontal cortex membranes
T2 construct: frontal cortical membranes (400 μl; equivalent 4 mg wet weight tissue/tube) was incubated with 50 μl of 0.1 nM; tissue Edinburgh Sudden Death Brain Bank; host or cells: post-mortem human frontal cortex membranes
T2 sequence (P28223 whole entry): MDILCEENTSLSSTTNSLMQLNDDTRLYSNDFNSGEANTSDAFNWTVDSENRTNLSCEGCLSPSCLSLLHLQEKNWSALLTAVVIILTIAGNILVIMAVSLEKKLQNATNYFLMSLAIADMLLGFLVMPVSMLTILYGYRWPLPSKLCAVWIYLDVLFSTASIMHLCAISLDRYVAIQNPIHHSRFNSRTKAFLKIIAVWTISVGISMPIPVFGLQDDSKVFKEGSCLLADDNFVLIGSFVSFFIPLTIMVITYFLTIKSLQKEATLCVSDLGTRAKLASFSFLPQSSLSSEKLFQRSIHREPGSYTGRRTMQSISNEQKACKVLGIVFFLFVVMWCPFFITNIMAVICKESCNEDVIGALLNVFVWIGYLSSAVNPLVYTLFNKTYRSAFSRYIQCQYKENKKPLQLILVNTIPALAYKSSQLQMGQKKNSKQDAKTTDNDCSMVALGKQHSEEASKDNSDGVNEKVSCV

human hepatocytes = experiment: Metabolite identification in human hepatocyte suspension; conditions: 5-MeO-DMT free base 10 μM, incubated up to 120 minutes
Description: For incubations with cryopreserved hepatocytes, the 2 mM stock solution was diluted with Leibovitz L-15 medium to a concentration of 20 μM or 2 μM. An aliquot (250 μL) of the 20 μM and 2 μM test substance formulations was added to each hepatocyte incubation sample (250 μL), as appropriate, so that the final test substance concentration in the incubations was 10 μM or 1 μM, respectively, and incubations contained less than 1% (v/v) solvent.
Incubations were performed at ca. 37° C. in a shaking water bath (total incubation volume 0.5 mL). For 1 μM, incubations were terminated after 0, 5, 10, 20, 30, 60 and 120 minutes, by the addition of ice-cold acetonitrile (0.5 mL).
The samples were vortex mixed and centrifuged at ca 13,000 rpm for 10 minutes at room temperature. Following centrifugation, the protein-free supernatants were removed for analysis.
Blank control incubations were carried out with Leibovitz L-15 medium in place of the test substance. No cells control samples were performed with Leibovitz L-15 medium in place of hepatocytes. Aliquots of the blank control samples were taken at 120 minutes, while no cells control samples were taken at 0, 30 and 120 for 1 μM incubations and at 0 and 120 minutes for 10 μM incubations.
All 1 μM incubations were performed in duplicate, while all 10 μM incubations were performed in singlet. All samples were stored at −80° C. (nominal) prior to analysis.
Prior to sample analysis a 100 μL aliquot of each sample was evaporated to near dryness under a steady stream of nitrogen at room temperature, and subsequently reconstituted in 50 μL of mobile phase A (0.1% formic acid in water). Each sample (0, 30 and 120-minute, 10 μM) was analysed using accurate mass LC-MS to determine relative levels of parent compound at each time-point, and determine the profile of metabolites formed. Appropriate blank and control samples were also analysed. The 10 and 60-minute, 10 μM incubation samples were not analysed and were stored at −80° C. (nominal). […]

[1] = system: human hepatocytes (Hμrel HumanPool co-culture); experiment: Metabolic stability in Hμrel human hepatocyte co-culture
[2] = as above; conditions: human

CN(C)CCc1c[nH]c2cccc(O)c12 [psilocin]
Ki (5-HT1A receptors): 48 nM

CN(C)CCc1c[nH]c2ccccc12 [DMT, N,N-dimethyltryptamine]
Ki (5-HT2A receptors): 117 nM

COc1ccc2[nH]cc(CCO)c2c1 [5-methoxytryptophol, 5-Methoxyindole-3-ethanol]
Relative Proportion of compounds identified (human hepatocytes): 25% | Disappearance with stromal cell controls ([1]; 0-72 h): no disappearance | Relative LC/MS peak area remaining ([1]; 1 μM Hepatocytes, 0 h): 100% | Relative LC/MS peak area remaining ([1]; 1 μM Hepatocytes, 1 h): 79% | Relative LC/MS peak area remaining ([1]; 1 μM Hepatocytes, 2 h): 57% | Relative LC/MS peak area remaining ([1]; 1 μM Hepatocytes, 4 h): 33% | Relative LC/MS peak area remaining ([1]; 1 μM Hepatocytes, 8 h): 10% | Relative LC/MS peak area remaining ([1]; 1 μM Hepatocytes, 24 h): 0% | Relative LC/MS peak area remaining ([1]; 1 μM Hepatocytes, 48 h): 0% | Relative LC/MS peak area remaining ([1]; 1 μM Hepatocytes, 72 h): 0% | Relative LC/MS peak area remaining ([1]; 1 μM Stromal cells, 0 h): 100% | Relative LC/MS peak area remaining ([1]; 1 μM Stromal cells, 4 h): 97% | Relative LC/MS peak area remaining ([1]; 1 μM Stromal cells, 8 h): 107% | Relative LC/MS peak area remaining ([1]; 1 μM Stromal cells, 24 h): 94% | Relative LC/MS peak area remaining ([1]; 1 μM Stromal cells, 48 h): 102% | Relative LC/MS peak area remaining ([1]; 1 μM Stromal cells, 72 h): 104% | Relative LC/MS peak area remaining ([1]; 10 μM Hepatocytes, 0 h): 100% | Relative LC/MS peak area remaining ([1]; 10 μM Hepatocytes, 1 h): 87% | Relative LC/MS peak area remaining ([1]; 10 μM Hepatocytes, 2 h): 81% | Relative LC/MS peak area remaining ([1]; 10 μM Hepatocytes, 4 h): 68% | Relative LC/MS peak area remaining ([1]; 10 μM Hepatocytes, 8 h): 42% | Relative LC/MS peak area remaining ([1]; 10 μM Hepatocytes, 24 h): 1% | Relative LC/MS peak area remaining ([1]; 10 μM Hepatocytes, 48 h): 0% | Relative LC/MS peak area remaining ([1]; 10 μM Hepatocytes, 72 h): 0% | Relative LC/MS peak area remaining ([1]; 10 μM Stromal cells, 0 h): 100% | Relative LC/MS peak area remaining ([1]; 10 μM Stromal cells, 4 h): 99% | Relative LC/MS peak area remaining ([1]; 10 μM Stromal cells, 8 h): 105% | Relative LC/MS peak area remaining ([1]; 10 μM Stromal cells, 24 h): 86% | Relative LC/MS peak area remaining ([1]; 10 μM Stromal cells, 48 h): 98% | Relative LC/MS peak area remaining ([1]; 10 μM Stromal cells, 72 h): 104% | Metabolic turnover in the presence of hepatocytes ([1]; 24h): complete disappearance | Predicted hepatic extraction ratio ([1]; human): 67% | half-life at 1 µM [2]: 2.37 h | hepatocyte CLint at 1 µM [2]: 16.2 µL/min/1e6 cells

From patent publication US20240108601A1, “TREATMENT OF MENTAL DISORDERS” (GH Research Ireland Limited, priority 2022, published 2024)
